The record followed here is patent US20230165831A1, “METHOD AND COMPOSITION FOR RENDERING CANCER CELLS SUSCEPTIBLE TO TREATMENT BY TARGETED ONCOGENETIC DRIVERS” (IMPACT BIOLIFE SCIENCE, INC., priority 2021, published 2023).

Experiment [1] concerns glioblastoma line U87MG cells.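 Further: U87MG cells seeded at 2000 per well, exposed 72 h, viability read by CellTiter-Glo luminescence, inhibition expressed relative to vehicle-treated wells.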
Experiment [2] deals with ovarian cancer line SK-OV3 cells.
Protocol: (§1) To measure the cell inhibition effect of compounds and synergy effect of test articles on ten (10) cell lines using standard CTG assay.
(§2) 7) Using complete cell medium, adjust the volume of the suspension to achieve a cell concentration.
(§3) A549, T47D, SK-OV-3, MKN45, SK-Hep-1, HT-29, Capan-1, 786-O and LNCaP cell line, for compounds and vehicle groups, the seeding density of cell lines is 3000 cells/80 µL per well. For blank groups, add 100 µL medium. For PBS groups, add 100 µL PBS.
(§4) 8) Incubate the U87MG, A549, T47D, SK-OV-3, MKN45, SK-Hep-1, HT-29, Capan-1, 786-O and LNCaP cells overnight at 37° C./5% CO2.
(§5) Solid compound of cis-platinum was solubilized in PBS to a stock solution of 3.333 mM.
(§6) Final volume is 100 µL per well at this point.
(§7) 5) Incubate the plates at 37° C./5% CO2 for 72 hours.
(§8) 1) Incubate the plates at room temperature and away from light for 30 minutes.
(§9) 3) Add 100 µL /well of CellTiter-Glo® Reagent in each well. Avoid light.
(§10) 4) Mix contents for 2 minutes on an orbital shaker.
(§11) 5) Incubate plate at room temperature for 10 minutes to stabilize the luminescent signal.
6) Read plates in Envision.
Experiment [3] deals with prostate adenocarcinoma line LNCap cells.
Experiment [4] relates to gastric cancer line MKN45 cells. Kind of experiment: CTG (CellTiter-Glo) cell viability assay, 6×6 combo matrix, 72 h, MKN45.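 Further: MKN45 cell viability read as CellTiter-Glo luminescence after 72 h culture at 37 °C under 5% CO2.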 For orientation: Cellular ATP, detected with luciferase, serves as a proxy for viable cell number.
Protocol: as §1, §2, §3, §4, §5, §6, §7, §8, §9, §10, §11
6) Read plates in Envision.
For experiment [5] the test system is unchanged.
Protocol: as §1, §2, §3, §4, §5, §6, §7, §8, §9, §10, §11
6) Read plates in Envision.
The test system of experiment [6] is lung adenocarcinoma line A549 cells.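 Further: luminescent ATP readout with CellTiter-Glo after compound exposure, used to assess growth inhibition and combination synergy.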

On to `COc1cccc2c1C(=O)c1c(O)c3c(c(O)c1C2=O)C[C@@](O)(C(=O)CO)C[C@@H]3O[C@H]1C[C@H](N)[C@H](O)[C@H](C)O1` [doxorubicin], for which the inhibition (commonly the drop in the measured response relative to a control, in per cent) in experiment [1] is 27.5%; in experiment [2] it was 2.75%; in experiment [3], 7.17%.
As to `O=c1c(O)c(-c2cc(O)c(O)c(O)c2)oc2cc(O)cc(O)c12` [myricetin], the “Relatively Cell inhibition of vehicle control(%)” value in experiment [4] (Myr 0.8 µM only (Cis 0)) is 5.96%; in experiment [4] (Myr 0.8 µM only (Dox 0)), 1.79%; in experiment [4] (Myr 0.8 µM only (Tax 0)), 0.13%; in experiment [4] (Myr 0.8 µM only (Top 0)) it was -8.02%; in experiment [4] (Myr 4 µM only (Cis 0)), 6.78%; in experiment [4] (Myr 4 µM only (Dox 0)) it was 2.42%. Further, the “Relatively Cell inhibition of vehicle control(%)” value in experiment [4] (Myr 4 µM only (Tax 0)) was -1.75%; in experiment [4] (Myr 4 µM only (Top 0)), -4.89%; in experiment [4] (Myr 20 µM only (Cis 0)), 14.42%; in experiment [4] (Myr 20 µM only (Dox 0)), 13.04%; in experiment [4] (Myr 20 µM only (Tax 0)), 5.06%; in experiment [4] (Myr 20 µM only (Top 0)) it was 1.70%. In addition, the “Relatively Cell inhibition of vehicle control(%)” value in experiment [4] (Myr 100 µM only (Cis 0), listed as Myr) is 44.00%; in experiment [4] (Myr 100 µM only (Dox 0)), 35.29%; in experiment [4] (Myr 100 µM only (Tax 0)) it was 32.89%; in experiment [4] (Myr 100 µM only (Top 0)) it was 29.93%.
As to `CC[C@@]1(O)C(=O)OCc2c1cc1n(c2=O)Cc2cc3c(CN(C)C)c(O)ccc3nc2-1` [topotecan], the inhibition came out at 14.9% in experiment [5], 23% in experiment [2] and 15.4% in experiment [3]. Besides, the “Relatively Cell inhibition of vehicle control(%)” value in experiment [4] (Top 16 nM only (Myr 0)) is recorded as 27.49%; in experiment [4] (Top 80 nM only (LB-1 0)), 48.98%; in experiment [4] (Top 80 nM only (Myr 0)), 53.47%; in experiment [4] (Top 400 nM only (LB-1 0)), 84.58%; in experiment [4] (Top 400 nM only (Myr 0)), 85.99%; in experiment [4] (Top 2000 nM only (LB-1 0)), 91.55%. The figures for the “Relatively Cell inhibition of vehicle control(%)” value in experiment [4] (Top 2000 nM only (Myr 0)), in experiment [4] (Top 10000 nM only (LB-1 0)) and in experiment [4] (Top 10000 nM only (Myr 0)) were 92.29%, 89.36% and 91.07%, respectively.
`CC(=O)O[C@H]1C(=O)[C@@]2(C)[C@H]([C@H](OC(=O)c3ccccc3)[C@]3(O)C[C@H](OC(=O)[C@H](O)[C@@H](NC(=O)c4ccccc4)c4ccccc4)C(C)=C1C3(C)C)[C@]1(OC(C)=O)CO[C@@H]1C[C@@H]2O` [taxol, paclitaxel]: the inhibition was determined as 13.7% in experiment [6]; 5.92% in experiment [1]; 35.1% in experiment [5]; 17.4% in experiment [2]; 9.88% in experiment [3]. The “Relatively Cell inhibition of vehicle control(%)” value in experiment [4] (Tax 8 nM only (LB-1 0)) was 52.04%; in experiment [4] (Tax 8 nM only (Myr 0)) it was 50.47%; in experiment [4] (Tax 40 nM only (LB-1 0)), 48.11%; in experiment [4] (Tax 40 nM only (Myr 0)), 56.30%; in experiment [4] (Tax 200 nM only (LB-1 0)), 64.94%; in experiment [4] (Tax 200 nM only (Myr 0)) it was 68.16%. Moreover, the “Relatively Cell inhibition of vehicle control(%)” value in experiment [4] (Tax 1000 nM only (LB-1 0)) is 70.65%; in experiment [4] (Tax 1000 nM only (Myr 0)) it was 69.93%.
